The values below come from patent publication US8404650B2, “Methods of treating cancer with doxazolidine and prodrugs thereof” (priority 2005, dated 2013).

The nature of data set [1]: Functional measure of hydrolysis: pre-hydrolysis in RPMI medium or human serum, then growth of MCF-7/Adr cells. The format is cell-based. To be noted: read out by growth of MCF-7/Adr cells; for half-life at 10 µM: RPMI 1640 medium, RPMI 1640, 37° C., estimated from FIG. 5A, read-out: Half-life in cell culture media. The method, then:
Hydrolysis of Doxaz or DoxF in RPMI medium was performed by dissociating the cells with trypsin/EDTA, counting and then suspending the cells in growth media to a concentration of 5×10^3 cells/mL. This cell suspension was dispensed in 200 μL aliquots (1000 cells/well) into the inside wells of 96-well tissue culture plates. Plates were then incubated for 24 h at 37° C. in a humidified atmosphere of 5% CO2, and 95% air. The medium was replaced with 180 μL of growth medium prior to addition of the drug. RPMI media (no serum added) was divided into 5 mL aliquots in conical vials and heated to 37° C. in a constant temperature bath. Doxaz and DoxF were dissolved in DMSO at a concentration of 1 mM equivalents. The concentration was then corrected by measuring the solution absorbance at 480 nm (ε=11,500 M^−1 cm^−1). Drug solution (50 μl) was added to an individual conical vial and the drug was allowed to hydrolyze (at 10 μM) for 0, 10, 20, 30, 45, 60, 75 or 90 min. Experiments were performed such that all hydrolysis times would end simultaneously. After hydrolysis, 20 μL of the drug solution was added to a lane of wells on the 96-well plate to give a final concentration of 1 μM equivalents (sum of Doxorubicin, Doxaz and/or DoxF) for treatment of cells. Additionally, two lanes were treated with 20 μL of growth medium containing 1% sterile DMSO for a control. The cells were incubated at 37° C. for 3 h, at which time the drug solutions were replaced with 200 μL of fresh growth media. The cells were then incubated for 5 days, and the extent of colony formation was determined using a crystal violet staining assay measuring optical density at 588 and 770 nm.
Hydrolysis of DoxF in RPMI medium or 100% human serum was performed as described above except drug hydrolysis was performed at 1 μM equivalents and drug treatment was at 100 nM equivalents. During drug treatment, the medium was either 90% RPMI/10% FBS or 90% RPMI/10% human serum. During cell growth, the medium was 90% RPMI/10% FBS. […]

The subject of data set [2] is cancer cells. The conditions noted are these: background statement; cited from earlier work.
Data set [3] is described as follows: Water solubility. To be noted: as di-cation. The data set is classed as physicochemical.
The test system of data set [4] is SHP-77. The experiment in a line: Growth inhibition of SHP-77 small cell lung cancer cells. To be noted: 24 h drug treatment, crystal violet. The format is cell-based. From the text: SHP-77 small cell lung cancer cells were also of interest because they express modest amounts of both enzymes. Inhibition of the growth of cardiomyocytes was used as a measure of cardiotoxicity, and inhibition of the growth of Vero cells, green monkey kidney cells, was again used as another measure of toxicity to normal cells.

A short description of data set [5]: Uptake of pentyl carbamate relative to Dox, flow cytometry, with and without fetal bovine serum. The format is cell-based. The conditions noted are these: 10% fetal bovine serum, flow cytometry, 3 h. The procedure:
Uptake of the pentyl carbamate relative to uptake of Dox was measured by flow cytometry, monitoring fluorescence of the Dox fluorophore as a measure of drug in cells. The measurements were performed over a period of 3 h in the presence and absence of fetal bovine serum, and the results are shown in FIG. 4. […] Further, the presence of 10% fetal bovine serum decreased the uptake of doxorubicin and the pentyl carbamate by about 25%. The more rapid uptake of the pentyl carbamate in the presence and absence of serum probably reflects its increased hydrophobicity relative to that of doxorubicin which is a cation at physiological pH. Increased hydrophobicity may also be the explanation for the effect of serum on the uptake of the carbamate; namely, the carbamate binds to serum proteins reducing drug uptake.
For orientation: Flow cytometry measures light scatter and fluorescence of single cells or particles in a stream.

Data set [6] deals with SK-HEP-1 liver cancer cells. The data set is described as follows: Drug uptake by SK-HEP-1 cells, flow cytometry. The conditions noted are these: in the presence of fetal bovine serum. The format is cell-based. The method, then: Uptake of pentyl PABC-Doxaz and Dox by multidrug resistant MCF-7/Adr breast cancer cells and SK-HEP-1 liver cancer cells in the presence of fetal bovine serum was determined by flow cytometry using drug fluorescence as a measure of drug in cells.

As to `COc1cccc2c1C(=O)c1c(O)c3c(c(O)c1C2=O)C[C@@](O)(C(=O)CO)C[C@@H]3OC1CC2C(OCN2CN2COC3C(C)OC(O[C@H]4C[C@](O)(C(=O)CO)Cc5c(O)c6c(c(O)c54)C(=O)c4c(OC)cccc4C6=O)CC32)C(C)O1` (stereo partly drawn) [DoxF, Doxoform, reference compound], the half-life at 1 µM in data set [1] (100% human serum, 100% pooled human serum, 37° C., start 100 nM equivalents, estimated from FIG. 5B) was roughly 3 min. Further, the half-life at 10 µM in data set [1] was roughly 1.5 min. In data set [2], the “Anti-tumor activity above Doxorubicin” value is recorded as “approximately 100 fold”.

As to `COc1cccc2c1C(=O)c1c(O)c3c(c(O)c1C2=O)C[C@@](O)(C(=O)CO)C[C@@H]3O[C@H]1C[C@H]2[C@H](OCN2C(=O)OCc2ccc(NC(=O)[C@H](CCCCN)NC(=O)[C@H](Cc3ccccc3)NC(=O)[C@@H](C)N)cc2)[C@H](C)O1` [Formula IV, D-Ala-L-Phe-L-Lys-p-aminobenzyloxycarbonyl-Doxaz], the Water solubility result in data set [3] is on record as “excellent water solubility”.

With `COc1cccc2c1C(=O)c1c(O)c3c(c(O)c1C2=O)C[C@@](O)(C(=O)CO)C[C@@H]3O[C@H]1C[C@H](N)[C@H](O)[C@H](C)O1` [Doxorubicin, reference compound], in data set [4] (Homo sapiens, SHP77), the IC50 was 126 nM. Moreover, in data set [5], the “Decrease of uptake by 10% fetal bovine serum” value was “about 25%”.

For the compound `CCCCCOC(=O)Nc1ccc(COC(=O)N2COC3C(C)OC(OC4CC(O)(C(=O)CO)Cc5c(O)c6c(c(O)c54)C(=O)c4c(OC)cccc4C6=O)CC32)cc1` (stereo not drawn) [Pentyl PABC-Doxaz, Pentyl 4-(N-doxazolidinylcarbonyloxymethyl)phenylcarbamate], the “Cell growth inhibition IC50, SHP-77” value in data set [4] is on record as −7.3 ± 0.1 log of molar concentrations. Besides, the “Uptake relative to Dox, SK-HEP-1” value in data set [6] is on record as “taken up much better”.

Consider `COc1cccc2c1C(=O)c1c(O)c3c(c(O)c1C2=O)C[C@@](O)(C(=O)CO)C[C@@H]3O[C@H]1C[C@@H]2NCO[C@@H]2[C@H](C)O1` [Doxaz, Doxazolidine], for which, in data set [1], the half-life at 10 µM is roughly 1 min.

As usually defined, the half-life is the time needed for the level to fall by half in the phase considered. By IC50 is commonly meant the concentration at which inhibition is half-maximal.
